{
  "source": "patent US20140088144A1",
  "about": "“INHIBITING MICROBIAL INFECTIONS” (THE UNIVERSITY OF KANSAS, priority 2012, published 2014)",
  "key": {"MBP-VirF": {"biological_target": "T1, MBP-VirF (Shigella flexneri, UniProt P0A2T1)", "T1 construct": "made in house; host or cells: E. coli KS 1000, plasmid pMALvirF", "test": "EMSA in vitro DNA binding by VirF (MBP-VirF)", "assay_type": "biochemical", "settings": "purified MBP-VirF", "description": "The IPTG inducible MBP-VirF expression plasmid, pMALvirF, was constructed by cloning virF downstream and in-frame with malE (encoding maltose binding protein, MBP) in the vector pMAL-c2X (New England Biolabs, Beverly, Mass.). MBP-VirF protein (referred to as VirF for simplicity) was purified using amylose affinity chromatography at 4° C. Briefly, pMALvirF was transformed into E. coli strain KS 1000 (New England Biolabs). The cells were grown to an OD600 of 0.5, transferred to 15° C., 0.1 mM IPTG was added, and then incubated overnight with shaking Cells were harvested and resuspended in 10 ml of binding buffer (20 mM Tris, 500 mM NaCl, 1 mM EDTA 1 mM DTT, pH 7.4). Cells were lysed by three freeze thaw cycles with lysozyme (0.4 mg/ml), tris (2-carboxyethyl)phosphine (TCEP, 1 mM) and phenylmethylsulfonyl fluoride (PMSF, 1 mM), at −80° C., followed by sonication and then centrifuged to remove cell debris. […]\nBinding of purified VirF to a DNA fragment containing the VirF binding site at virB was analyzed by electrophoretic mobility shift assay (EMSA) (68), in the absence or presence of SE-1. […] Gels were scanned using an Odyssey infrared imager (LI-COR, Lincoln, Nebr.), and quantified using Odyssey software, version 3.0.30. […]"}, "[1]": {"system": "E. coli strains used for in vivo assays", "test": "E. coli growth curves", "assay_type": "cell-based", "settings": "for impact on growth of the cells: minimal medium", "description": "Strains SME3634 and SME3359 were grown overnight (˜16 hr) at 37° C. in MOPS-buffered minimal medium. Overnight grown cultures were diluted into the same medium plus rhamnose to an O.D600 of 0.1, and IPTG was added. 1 mL aliquots of the cultures were added to wells of a 24-well plate, with the addition of either 44 μM Compound 1 (dissolved in 100% DMSO) or an equal volume of 100% DMSO. Growth was monitored at 20 min intervals for approximately 8 hr. at 37° C. with continuous shaking in a PowerWave XS plate reader (BioTek Instruments, Inc., Winooski, Vt.). Error bars represent the standard error of the mean.\nTo test the impact of SE-1 on growth of the bacterial strains used for in vivo dose-response assays (SME4382 and SME3359), we compared growth rates in the presence and absence of SE-1, without addition of rhamnose. Briefly, the cells were grown at 37° C. with shaking in MOPS-buffered minimal medium with glycerol and plus 6.5 mM IPTG, in 24-well plates, with or without: SE-1 (44 uM SE-1, 0.3% DMSO), or DMSO (0.3%) in a PowerWave XS plate reader equipped with KC^4 data analysis software (BioTek Instruments)."}, "[2]": {"system": "Shigella invasion of HeLa cells", "test": "Shigella invasion of HeLa cells", "assay_type": "cell-based, Shigella flexneri strain M90T", "settings": "bacteria grown with compound before addition to cells", "description": "We assayed the effect of Compound 1 on the interaction of Shigella with cultured human epithelial cells. Shigella flexneri strain M90T was grown to maximize type III secretion system [Shigella] expression. Shigella was assayed for invasion of HeLa cells. The bacterial cells were grown in the presence of Compound 1 prior to addition to tissue culture wells. Invasion assays involved, briefly, incubation of Shigella cells in tissue culture wells, washing to remove non-adherent bacteria, addition of gentamycin to kill bacterial cells that had not invaded the epithelial cells, trypsin treatment to dislodge epithelial cells, serial dilutions and plating on LB to enumerate bacterial colonies"}, "RhaS": {"biological_target": "RhaS (Escherichia coli, UniProt P09377)", "sequence (P09377 whole entry)": "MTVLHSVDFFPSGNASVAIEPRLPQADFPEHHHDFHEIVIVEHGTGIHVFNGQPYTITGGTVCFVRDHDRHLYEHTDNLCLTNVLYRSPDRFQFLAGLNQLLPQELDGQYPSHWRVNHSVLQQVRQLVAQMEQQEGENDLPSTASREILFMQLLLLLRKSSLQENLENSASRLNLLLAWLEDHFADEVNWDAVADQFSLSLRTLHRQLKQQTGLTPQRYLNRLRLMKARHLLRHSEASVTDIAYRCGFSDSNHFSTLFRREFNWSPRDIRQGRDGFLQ", "test": "% Inhibition at 82.5 μM, RhaS", "assay_type": "cell-based, E. coli"}},
  "data": [
    {"smiles": "CCCCN1C=C(c2ccc3ccccc3n2)C(C[N+](=O)[O-])c2ccccc21", "note": "(stereo not shown) [Compound 1, 1-butyl-4-(nitromethyl)-3-quinolin-2-yl-4H-quinoline]", "values": [
      {"measurement": "inhibition of DNA binding by VirF", "setting": "MBP-VirF", "value": "similarly inhibits"},
      {"measurement": "inhibition of DNA binding by VirF", "setting": "MBP-VirF; listed as SE-1", "value": "fully inhibit DNA binding"},
      {"measurement": "effect on growth of either strain", "setting": "[1]; 44 uM, SME4382 and SME3359, 8 h at 37° C.", "value": "no detectable effect"},
      {"measurement": "impact on growth of the cells", "setting": "[1]; 44 μM, strains with RhaS-activated and LacI-repressed fusions (SME3634, SME3359)", "value": "no impact"},
      {"measurement": "impact on growth of the cells", "setting": "[1]; strains with VirF/Rns-activated and LacI-repressed reporter fusions", "value": "no impact"},
      {"measurement": "ability of Shigella to invade human epithelial cells", "setting": "[2]", "value": "reduced"},
      {"measurement": "% Inhibition at 82.5 μM RhaS", "setting": "RhaS", "value": 90, "unit": "%"}
    ]}
  ]
}
